This is an account of results in ChEMBL document CHEMBL3507680, “University of Dundee, Gates Library screen for HepG2 cell viability”.

The data set in a line: Human HepG2 cell viability assay in 384 well format. The data set is classed as toxicity, cell-based. Also on record: dose 125 nL, time 70.5 hour; concentration not given beside the values. The note with it: HepG2 cells, read-out: Inhibition.

Regarding `Cn1cc(CCCNC(=O)NC2CCN(CC(F)(F)F)C2=O)cn1` (stereo unspecified), the cytotoxicity at 70.5 h is -3.21%.

With `Cc1ccc(CCNC(=O)NC2CCN(CC(F)(F)F)C2=O)cn1` (stereo unspecified), the cytotoxicity at 70.5 h was -5.39%. To `N#Cc1c(F)cccc1NCCCOCC1CCOC1` (stereo unspecified) belongs -0.771%. For `N#Cc1cc(F)c(NCCCOCC2CCOC2)c(F)c1` (stereo unspecified) the value was 7.98%; for `N#Cc1ccc(NCCCOCC2CCCO2)c(F)c1` (stereo unspecified), 2%.

With `COCC(NC(=O)NCc1cccc(Cl)c1)c1ccco1` (stereo unspecified), the cytotoxicity at 70.5 h is -5.77%. For `Cc1cc(NS(=O)(=O)c2cnc3onc(C)c3c2)no1` the value was 0.112%; for `CN(C)CCN(Cc1ccco1)C(=O)Cc1cn2ccsc2n1`, -3.81%.

For `COCC(NC(=O)NCc1sccc1C)c1ccco1` (stereo unspecified), the cytotoxicity at 70.5 h worked out at 1.36%.

Consider `COc1ccc(C(C)(C)C(=O)NCc2n[nH]c(=O)[nH]2)cc1`, for which the cytotoxicity at 70.5 h is -1.62%. Regarding `COc1ccc(S(=O)(=O)NC(=O)c2ccccc2F)cc1OC`, the cytotoxicity at 70.5 h was 1.07%. As for `c1cncc(-c2ccnn2CN2CCOCC2)c1`, the cytotoxicity at 70.5 h was 0.876%. As to `O=C(Cc1cn2ccsc2n1)N(Cc1ccco1)CC1CCCO1` (stereo unspecified), the cytotoxicity at 70.5 h was 7.91%.

As to `COC(C)(C)CC(C)NC(=O)NC1CCN(Cc2ccccn2)CC1` (stereo unspecified), the cytotoxicity at 70.5 h was -0.855%. For `Cc1ccc(NC(=O)N(C)CC(O)COCCOC(C)C)c(Br)c1` (stereo unspecified) the value was -4.27%; for `O=C(NCc1cc[nH]n1)N1CCC(Oc2ccccc2Cl)CC1`, 8.97%; for `Cc1csc(C2(NCC(O)COc3ccc(F)cc3)CCC2)n1` (stereo unspecified), -0.482%. Turning to `COCC1CN(C(=O)Nc2cc(-n3cccc3)ccc2F)CCO1` (stereo unspecified), the cytotoxicity at 70.5 h worked out at 7.34%. Regarding `COc1ccccc1CN(C)c1nc2c(cnn2C)c(=O)[nH]1`, the cytotoxicity at 70.5 h was -10.3%. To `COc1ccc(CN(C)c2nc3c(cnn3C)c(=O)[nH]2)c(OC)c1` belongs 18.3%; to `CS(=O)(=O)c1nnc(NC(=O)CCc2ccc(Cl)s2)[nH]1`, -10.2%; to `COc1ccc(OC)c(CN(C)c2nc3c(cnn3C)c(=O)[nH]2)c1`, 42.4%. To `CC(C)N(C)CCNC(=O)NCc1ccccc1-n1cccn1` belongs -7.41%; to `Cc1ccc(C)c(OCc2nnc(SCC3CCCN(C)C3)o2)c1` (stereo unspecified), -5.12%. For `Cc1ccc(OCC(=O)N(C)Cc2cccc(F)c2)cn1`, the cytotoxicity at 70.5 h was -3.84%.

For the compound `COc1ccc(Br)cc1CN(C)c1nc2c(cnn2C)c(=O)[nH]1`, the cytotoxicity at 70.5 h was -10.6%.

As to `O=C(Cc1ccc(Cl)cc1)N1CCC(O)(C(F)(F)F)C1` (stereo unspecified), the cytotoxicity at 70.5 h was -2.11%.

With `CN(CCn1cccn1)c1cc(C(F)(F)F)nc(-c2cccnc2)n1`, the cytotoxicity at 70.5 h is -4.93%. For `Cn1c(SCC2OCCc3ccccc32)n[nH]c1=O` (stereo unspecified) the value was -8.09%. As to `O=C(N1CCC(O)(C(F)(F)F)C1)C1(c2cccc(Cl)c2)CC1` (stereo unspecified), the cytotoxicity at 70.5 h is -9.29%. To `O=C(CCc1ccc(Cl)cc1)N1CCC(O)(C(F)(F)F)C1` (stereo unspecified) belongs -6.2%; to `Cn1cccc(NC(=O)N2CCC(Cc3ccccc3)C2)c1=O` (stereo unspecified), 19.7%. To `CCCn1nc(-c2nc(C3CC3)no2)ccc1=O` belongs 5.03%; to `Cc1csc(C2(NCc3ccc(OCC(F)F)cc3)CCCC2)n1`, -5.7%. Take `FC(F)(F)c1cc(NCCn2ncnn2)nc(-c2cccnc2)n1`: the cytotoxicity at 70.5 h was -9.6%. Regarding `O=S(=O)(Cc1ccc(F)c(Cl)c1)NC(CO)c1ccco1` (stereo unspecified), the cytotoxicity at 70.5 h was -11%. For `Cc1ccc(-c2nc(CNc3ccc(C(N)=O)c(C)c3)cs2)o1` the value was -8.76%.

For the compound `CC(C)(CCS(C)(=O)=O)CNc1ccc2ccc(F)cc2n1`, the cytotoxicity at 70.5 h is -2.27%. For `CCC(C(=O)N1CCCSCC1)N1CCCC1=O` (stereo unspecified) the value was 12.1%. On to `Cn1cccc(NC(=O)N2CCC(COCc3ccccc3)C2)c1=O` (stereo unspecified), for which the cytotoxicity at 70.5 h was determined as 7.11%. To `O=S(=O)(NCC1CCN(CCN2CCOCC2)C1)c1ccccc1F` (stereo unspecified) belongs 13.9%; to `Cc1ccc2c(c1)OC(C)CN2C(=O)CCc1cccnc1` (stereo unspecified), 1.51%. For `Cc1ccc2c(c1)OC(C)CN2C(=O)CCc1cscn1` (stereo unspecified) the value was 0.46%. For the compound `O=C(NCCCN1CCN(c2ncccn2)CC1)NCC1CCCO1` (stereo unspecified), the cytotoxicity at 70.5 h is -3.85%.

Turning to `CCc1nnsc1C(=O)N(C)Cc1ccc(Br)o1`, the cytotoxicity at 70.5 h was -2.39%. As to `CCc1nnsc1C(=O)N(C)Cc1ccc(C)o1`, the cytotoxicity at 70.5 h was -0.808%. Regarding `O=C(NCCCN1CCN(c2ncccn2)CC1)NCC1CCOC1` (stereo unspecified), the cytotoxicity at 70.5 h came to 3.56%. Turning to `Cc1ccc(NC(=O)CSCc2cccnc2)nc1`, the cytotoxicity at 70.5 h was -1.37%. For `CC1COCCN1C(=O)NCCCn1ccnc1` (stereo unspecified) the value was -2.86%. With `CC(=O)N1CCCC(C(=O)N2CCN(Cc3cc(C)on3)CC2)C1` (stereo unspecified), the cytotoxicity at 70.5 h was found to be 2.35%.

Consider `COc1ccc(CNc2c(C)nn(C(C)C)c2C)cc1`, for which the cytotoxicity at 70.5 h is 13.9%. To `O=C(Cc1ccccc1F)NCC1CCN(CCc2ccccc2)C1` (stereo unspecified) belongs -1.68%; to `CC(C)NC(=O)[C@@H]1C[C@H]2OCC[C@H]2N(Cc2ccc3ccccc3n2)C1`, 12.8%. On to `Cc1cc(C(=O)N2CCn3cc(CN4CCN(C)CC4)nc3C2)no1`, for which the cytotoxicity at 70.5 h is -11.8%. In the case of `Cc1cccc(C(=O)N2CCC3(CC2)CC(c2cnn(C)c2)CO3)c1` (stereo unspecified), the cytotoxicity at 70.5 h was -15%. On to `CNC(=O)N1CCc2nc(C(=O)NCc3cccc(OC)c3)sc2CC1`, for which the cytotoxicity at 70.5 h amounted to 18%. `O=C(NC1CC1)[C@@H]1CCO[C@@H]2CCN(Cc3ccco3)C[C@H]21`: the cytotoxicity at 70.5 h was -13.9%. Turning to `CNC(=O)C1Cn2ccnc2C2(CCN(Cc3c(C)noc3C)CC2)O1` (stereo unspecified), the cytotoxicity at 70.5 h turned out to be 21.5%.

For the compound `Cn1cc(C2COC3(CCN(C(=O)c4cccn4C)CC3)C2)cn1` (stereo unspecified), the cytotoxicity at 70.5 h was 14.2%. Consider `Cn1cc(C2COC3(CCN(C(=O)c4ccn(C)n4)CC3)C2)cn1` (stereo unspecified), for which the cytotoxicity at 70.5 h was -14.5%. In the case of `Cc1cccc(C(=O)N2CC[C@]3(C[C@H](OCc4ccccn4)CO3)C2)c1`, the cytotoxicity at 70.5 h stood at 11.1%. Consider `c1cnc(NC2COC3(CCN(Cc4nccs4)CC3)C2)cn1` (stereo unspecified), for which the cytotoxicity at 70.5 h was -8.19%. To `O=C(Cc1cccs1)N1CCn2cc(Cn3cccn3)nc2C1` belongs -13.4%. For the compound `O=C(c1ccncc1F)N1CC[C@@H]2CN(c3ncccn3)CCO[C@@H]2C1`, the cytotoxicity at 70.5 h was -11.2%.

Regarding `O=C(c1ccccc1)N1CCC[C@]2(C[C@@H](OCc3ccccn3)CO2)C1`, the cytotoxicity at 70.5 h was -13.1%.

In the case of `Cn1nccc1C(=O)N1CC[C@]2(C[C@H](OCc3ccccn3)CO2)C1`, the cytotoxicity at 70.5 h is -11.1%.

Turning to `Cc1ccc(C(=O)N2CCC3(CC2)CC(c2cnn(C)c2)CO3)cn1` (stereo unspecified), the cytotoxicity at 70.5 h is -10.6%. To `O=C([C@H]1C[C@H]2OCC[C@H]2N(Cc2ccc(F)cc2)C1)N1CCCCO1` belongs 20.6%.

On to `O=C(NCc1ccco1)[C@H]1COC[C@H]2CN(Cc3ccccn3)C[C@H]21`, for which the cytotoxicity at 70.5 h is -8.72%. To `CN1CCN(C2COC3(CCN(Cc4ccsc4)CC3)C2)CC1` (stereo unspecified) belongs -8.09%. Regarding `O=C(Cc1ccccn1)N1CCN2C[C@H](OCCN3CCCC3)C[C@H]2C1`, the cytotoxicity at 70.5 h was found to be 19.7%.
